Each molecule was assayed against Lysine-specific histone demethylase 1A (Homo sapiens, UniProt O60341) (assay: Demethylase Biochemical Assay: LANCE LSD1/KDM1A demethylase assay¿10 uL of 1 nM LSD-1 enzyme (ENZO BML-SE544-0050) in the assay buffer (50 mM Tris, pH 7.5, 0.01% Tween-20, 25 mM NaCl, 5 mM DTT) were preincubated for 1 hour at 25° C. with 0.8 uL compound/DMSO dotted in black 384 well polystyrene plates. Reactions were started by addition of 10 uL of assay buffer containing 0.4 uM Biotin-labeled Histone H3 peptide substrate: ART-K(Me1)-QTARKSTGGKAPRKQLA-GGK(Biotin) SEQ ID NO:1 (AnaSpec 64355) and incubated for 1 hour at 25° C. Reactions were stopped by addition of 10 uL 1x LANCE Detection Buffer (PerkinElmer CR97-100) supplemented with 1.5 nM Eu-anti-unmodified H3K4 Antibody (PerkinElmer TRF0404), and 225 nM LANCE Ultra Streptavidin (PerkinElmer TRF102) along with 0.9 mM Tranylcypromine-HCl (Millipore 616431). After stopping the reactions plates were incubated for 30 minutes and read on a PHERAstar FS plate reader (BMG Labtech).).

Compound | IC50 [nM]
COC(=O)N(C)c1ccc(-c2c(-c3ccc(C#N)cc3)cc(OC[C@@H]3CCCN(C)C3)c3cncn23)cn1 | < 50
COC(=O)N(C)c1ccc(-c2c(-c3ccc(C#N)cc3)nc(N3CCC(N(C)C)CC3)c3cncn23)cc1F | < 50
COC(=O)N(C)c1ccc(-c2c(-c3ccc(C#N)cc3)nc(N3CCC(N(C)C)CC3)c3cncn23)cn1 | < 50

Reference: ChEMBL document CHEMBL5725310, “Substituted imidazo[1,5-α]pyridines and imidazo[1,5-α]pyrazines as LSD1 inhibitors” (2017)
